Type in all cases: in vivo
In experiment [1] the test system is Echinochloa crus-galli (ECHCG). The experiment in a line: Example B pre-emergence herbicidal activity, glasshouse pot test. To be noted: 312 h, rate 250 g/ha, evaluated after 13 days, scale 0-100, read-out: Pre-emergence activity ECHCG (100=total damage to plant; 0=no damage to plant). On the procedure:
(§1) Seeds of a variety of test species were sown in standard soil in pots. After cultivation for one day (pre-emergence) or after 8 days cultivation (post-emergence) under controlled conditions in a glasshouse (at 24/16° C., day/night; 14 hours light; 65% humidity), the plants were sprayed with an aqueous spray solution derived from the formulation of the technical active ingredient of formula I in acetone/water (50:50) solution containing 0.5% Tween 20 (polyoxyethelyene sorbitan monolaurate, CAS RN 9005-64-5). The test plants were then grown in a glasshouse under controlled conditions in a glasshouse (at 24/16° C., day/night; 14 hours light; 65% humidity) and watered twice daily. After 13 days for pre and post-emergence, the test was evaluated (100=total damage to plant; 0=no damage to plant). Setaria faberi (SETFA), Lolium perenne (LOLPE), Alopecurus myosuroides (ALOMY), Echinochloa crus-galli (ECHCG), and Avena fatua (AVEFA). Pre-Emergence Activity

In experiment [2] the test system is Lolium perenne (LOLPE). The description is as above. To be noted: 312 h, rate 250 g/ha, evaluated after 13 days, scale 0-100, read-out: Pre-emergence activity LOLPE (100=total damage to plant; 0=no damage to plant). On the procedure: as §1
In experiment [3] the test system is Avena fatua (AVEFA). The description is as above. The settings on record: 312 h, rate 250 g/ha, evaluated after 13 days, scale 0-100, read-out: Pre-emergence activity AVEFA (100=total damage to plant; 0=no damage to plant). As for the experimental part: as §1
Experiment [4] concerns Alopecurus myosuroides (ALOMY). The description is as above. The settings on record: 312 h, rate 250 g/ha, evaluated after 13 days, scale 0-100, read-out: Pre-emergence activity ALOMY (100=total damage to plant; 0=no damage to plant). As for the experimental part:
as §1

Experiment [5] has as its system Echinochloa crus-galli (ECHCG). Briefly: Example B post-emergence herbicidal activity, glasshouse pot test. To be noted: 312 h, rate 250 g/ha, evaluated after 13 days, scale 0-100, read-out: Post-emergence activity ECHCG (100=total damage to plant; 0=no damage to plant). As for the experimental part:
as §1, with “Post-Emergence” for “Pre-Emergence”

The subject of experiment [6] is Lolium perenne (LOLPE). The description is as above. The settings on record: 312 h, rate 250 g/ha, evaluated after 13 days, scale 0-100, read-out: Post-emergence activity LOLPE (100=total damage to plant; 0=no damage to plant). On the procedure:
as §1, with “Post-Emergence” for “Pre-Emergence”

Experiment [7] has as its system Avena fatua (AVEFA). The description is as above. The settings on record: 312 h, rate 250 g/ha, evaluated after 13 days, scale 0-100, read-out: Post-emergence activity AVEFA (100=total damage to plant; 0=no damage to plant). As for the experimental part: as §1, with “Post-Emergence” for “Pre-Emergence”
The test system of experiment [8] is Alopecurus myosuroides (ALOMY). Described as above. The settings on record: 312 h, rate 250 g/ha, evaluated after 13 days, scale 0-100, read-out: Post-emergence activity ALOMY (100=total damage to plant; 0=no damage to plant). On the procedure: as §1, with “Post-Emergence” for “Pre-Emergence”

As for `CCc1ccc(-c2ccc(Cl)cc2F)cc1C1=C(O)CCCC1=O` [Compound T45], the pest or weed control at 250 g/ha in experiment [1] came to 100%; in experiment [2], 100%; in experiment [3] it was 20%; in experiment [4], 20%; in experiment [5] it was 100%; in experiment [6], 100%. In addition, the pest or weed control at 250 g/ha in experiment [7] is 90%; in experiment [8] it was 40%.

Turning to `CCc1ccc(-c2cc(Cl)c(Cl)cc2Cl)cc1C1=C(O)CCCC1=O` [Compound T46], the pest or weed control at 250 g/ha was 90% in experiment [1]; 70% in experiment [2]; 20% in experiment [3]; 0% in experiment [4]; 100% in experiment [5]; 70% in experiment [6]. Moreover, the pest or weed control at 250 g/ha in experiment [7] amounted to 20%; in experiment [8] it was 0%.

As for `CCc1ccc(-c2ccc(Cl)c(OC)c2)cc1C1=C(O)C(C)(C)CCC1=O` [Compound T6], the pest or weed control at 250 g/ha in experiment [1] was determined as 80%; in experiment [2], 0%; in experiment [3] it was 0%; in experiment [4], 0%; in experiment [5], 100%; in experiment [6], 60%. Further, the values for the pest or weed control at 250 g/ha in experiment [7] and in experiment [8] were 40% and 0%, respectively.

As for `CCc1ccc(-c2ccc(Cl)c(Cl)c2Cl)cc1C1=C(O)CCCC1=O` [Compound T54], the pest or weed control at 250 g/ha was found to be 70% in experiment [1]; 20% in experiment [2]; 0% in experiment [3]; 0% in experiment [4]; 80% in experiment [5]; 60% in experiment [6]. For the same molecule, the pest or weed control at 250 g/ha in experiment [7] worked out at 0%; in experiment [8] it was 20%.

Take `CCc1ccc(-c2ccc(Cl)c(Cl)c2)cc1C1=C(O)CCCC1=O` [Compound T49]: the pest or weed control at 250 g/ha came to 100% in experiment [1]; 100% in experiment [2]; 60% in experiment [3]; 20% in experiment [4]; 100% in experiment [5]; 90% in experiment [6]. In addition, the pest or weed control at 250 g/ha in experiment [7] came out at 80%; in experiment [8], 50%.

For `CCc1ccc(-c2ccc(Cl)c(Cl)c2)cc1C1=C(O)CC(C)(C)CC1=O` [Compound T22], the pest or weed control at 250 g/ha was determined as 90% in experiment [1]; 80% in experiment [2]; 40% in experiment [3]; 20% in experiment [4]; 100% in experiment [5]; 100% in experiment [6]. Further, the pest or weed control at 250 g/ha in experiment [7] was determined as 40%; in experiment [8], 70%.

As to `CCc1ccc(-c2ccc(Cl)s2)cc1C1=C(O)CC(C)(C)CC1=O` [Compound T26], the pest or weed control at 250 g/ha in experiment [1] is 100%; in experiment [2], 100%; in experiment [3], 0%; in experiment [4] it was 20%; in experiment [5] it was 80%; in experiment [6] it was 70%. Further, the pest or weed control at 250 g/ha in experiment [7] worked out at 0%; in experiment [8], 30%.

For the molecule `CCc1ccc(-c2ccc(Cl)c(F)c2)cc1C1=C(O)C(C)(C)CC(C)(C)C1=O` [Compound T64], the pest or weed control at 250 g/ha in experiment [1] is 70%; in experiment [2], 60%; in experiment [3], 10%; in experiment [4], 30%; in experiment [5] it was 100%; in experiment [6], 80%. The pest or weed control at 250 g/ha in experiment [7] came to 80%; in experiment [8], 50%.

`CCc1ccc(-c2ccc(Cl)c(Cl)c2)cc1C1=C(O)C(C)(C)CCC1=O` [Compound T5]: the pest or weed control at 250 g/ha worked out at 0% in experiment [1]; 0% in experiment [2]; 0% in experiment [3]; 0% in experiment [4]; 100% in experiment [5]; 80% in experiment [6]. Besides, the pest or weed control at 250 g/ha in experiment [7] was determined as 90%; in experiment [8], 70%.

Consider `CCc1ccc(-c2ccc(Cl)c(C(F)(F)F)c2)cc1C1=C(O)CC(C)(C)CC1=O` [Compound T25], for which the pest or weed control at 250 g/ha in experiment [1] worked out at 80%; in experiment [2], 70%; in experiment [3], 20%; in experiment [4], 30%; in experiment [5], 100%; in experiment [6] it was 100%. For the same molecule, the pest or weed control at 250 g/ha in experiment [7] and in experiment [8] was 80% throughout.

In the case of `CCc1ccc(-c2ccc(C(F)(F)F)cc2)cc1C1=C(O)CCCC1=O` [Compound T59], the pest or weed control at 250 g/ha in experiment [1], in experiment [2], in experiment [3], in experiment [4], in experiment [5] and in experiment [6] was 100% in each case. The pest or weed control at 250 g/ha in experiment [7] and in experiment [8] was 100% in each case.

For `CCc1ccc(-c2c(F)cc(Cl)cc2F)cc1C1=C(O)C(C)(C)CCC1=O` [Compound T13], the pest or weed control at 250 g/ha in experiment [1] is 40%; in experiment [2], 50%; in experiment [3] it was 0%; in experiment [4], 0%; in experiment [5], 100%; in experiment [6], 50%. The pest or weed control at 250 g/ha in experiment [7] and in experiment [8] was 0% each time.

Turning to `CCc1ccc(-c2ccc(Cl)c(C(F)(F)F)c2)cc1C1=C(O)CCCC1=O` [Compound T41], the pest or weed control at 250 g/ha in experiment [1] turned out to be 100%; in experiment [2] it was 100%; in experiment [3], 30%; in experiment [4], 20%; in experiment [5], 90%; in experiment [6], 100%. The pest or weed control at 250 g/ha in experiment [7] came to 50%; in experiment [8], 60%.

For the molecule `CCc1ccc(-c2ccc(Cl)cc2C)cc1C1=C(O)CC(C)(C)CC1=O` [Compound T21], the pest or weed control at 250 g/ha was 40% in experiment [1]; 50% in experiment [2]; 30% in experiment [3]; 0% in experiment [4]; 80% in experiment [5]; 70% in experiment [6]. Further, the pest or weed control at 250 g/ha in experiment [7] and in experiment [8] was 0% in each case.

For the molecule `CCc1ccc(-c2ccc(Cl)c(Cl)c2)cc1C1=C(O)C(C)(C)CC(C)(C)C1=O` [Compound T67], the pest or weed control at 250 g/ha in experiment [1] was found to be 60%; in experiment [2], 10%; in experiment [3], 0%; in experiment [4], 10%; in experiment [5] it was 80%; in experiment [6], 40%. In addition, the pest or weed control at 250 g/ha in experiment [7] and in experiment [8] was 20% each time.
